Reference: PMC10665234, “Nutritional Supplementation and Enhanced Antioxidant Function by Dietary Intake of Selenoneine and Other Selenium Compounds in Red Seabream Pagrus major” (Marine Biotechnology (New York, N.y.), 2023)

How the values were obtained:
[1] = Total selenium concentrations in the tissues of red seabream after feeding selenium-supplemented dry pellet (fluorometric assay with 2,3-diamino-naphthalene); assay type: in vivo, red seabream Pagrus major
Description: (§1) Red seabream fry (average body weight of 5.4 g) was obtained from private seed and seedling production company (Oita, Japan) and cultured for seven months up to average body weight of 250 g. Chemical composition of control diet was containing crude protein 50%; […]; Ca 2.3%; ash 16.0%; and phosphorus 1.5%. Each selenium-added diet was fed twice a day for 4 weeks in an amount of 1% of the average body weight. Body weight of fish in each tank was measured when fish were sampled and amount of diet was calculated according to the body weight of every sampling day. The added selenium concentrations in the diets were set in 0 ppm, 1 ppm, and 2 ppm selenium according to the previous study (Tohfuku et al. [2021]). After that, they were fed a commercial diet twice a day for 1 week. The test groups were the control group, the sodium selenite group (1 mg Se/kg feeding group and 2 mg Se/kg feeding group), the selenomethionine group (1 mg Se/kg feeding group and 2 mg Se/kg feeding group), and the selenoneine group (1 mg Se/kg feeding group and 2 mg Se/kg feeding group) were set. The number of fish raised was 15 from the start of rearing in each tank until the 2nd week, 10 from the 3rd to 4th week, and 5 in the 5th week. […] We reared red seabream by feeding of 1% dry pellet containing of sodium selenite, selenomethionine, or selenoneine of body weight twice a day for 4 weeks. After that, we replaced to 1% of commercial dry pellet of body weight twice a day for 1 week from the selenium supplementation. Average water temperature was 20.9 ℃ (19.0–23.9 ℃) and average dissolved oxygen was 7.41 mg/L. The body weight change of red seabream for 5 weeks is shown in Table S2.
(§2) Red seabream was anesthetized by adding 2 mL of anesthetic (1/100 volume of 2-methylquinoline dissolved in ethanol) to 1 L of seawater. A small amount of an anticoagulant (heparin sodium dissolved in physiological saline; 800 units/mL) was placed in a syringe in advance, and blood was collected from the caudal peduncle of each fish. The collected blood was centrifuged at 5000 rpm for 5 min (4 °C), divided into a plasma fraction and a precipitated fraction, and stored at − 50 °C. The precipitated fraction was used for analysis as the blood cell fraction.
Total selenium concentration was determined by fluorometric assay with 2,3-diamino-naphthalene, after digestion in 1.5 mL of nitric acid and perchloric acid (1:2 in volume) at 200–220 ℃ (Watkinson [1966]; Yamashita and Yamashita [2010]).

[2] = tested on: red seabream; assay: Oxidation-reduction potential (ORP) in white muscle; assay type: in vivo, red seabream Pagrus major; details: 2 weeks; 1 or 2 ppm in diet
Description: ORP was measured with ORP electrode (9300, Horiba, Kyoto, […]). The electrode was pierced into muscle and pressed gently until the potential stabilized for 60 s.

[3] = Selenoneine concentration in white muscle and blood cell by HPLC-ICP-MS (82Se); assay type: in vivo, red seabream Pagrus major; details: for Selenoneine concentration, blood cell / Selenoneine concentration, white muscle: fish cultured for 4 weeks
Description: as §1, §2
Selenoneine was separated by chromatography using a Shodex GF-310 column (4.5 mm × 150 mm; Showa Denko, Tokyo, Japan) equilibrated with 100 mM ammonium formate buffer containing 0.1% (w/v) Igepal CA-630 (MP Biomedicals, CA, USA). The injection volume was at 10 μL. The mobile phase delivered at 0.5 mL/min isocratically. ^82Se was detected with high performance liquid chromatography inductively coupled plasma mass spectrometry (HPLC-ICP-MS; Agilent 1100 Series and Agilent 7500 Series, Agilent Technology) (Yamashita and Yamashita [2010]). During separation, selenoneine was eluted at a retention time of 200 s, and the selenium concentration was determined using selenoneine as a standard.

[4] = tested on: yellowtail; set-up: method as in Our unpublished research; details: ref Our unpublished research; cited from earlier work
[5] = Uptake factor of selenoneine from feed (ratio of concentration in muscle or blood cells to feed); assay type: in vivo, red seabream Pagrus major; details: artificial feed containing selenoneine at 0.1–2 mg Se/kg
Description: Uptake factor is defined as a ratio of selenoneine concentration in muscle or blood cells to those in feed, and is the same as the biomagnification factor (Yamada et al. [1994]). Thus, uptake factor is an indicator showing the degree of accumulation of selenoneine in muscle or blood cells by dietary intake of feed. The uptake factor was calculated by the following equation on the equilibrium period of the dietary exposure experiments:
Uptake factor = ((Cen − Cb) / CF) × 10^–3where Cen is selenoneine concentration in muscle or blood cells of fish fed with selenoneine-contained feed (ng/kg), Cb is selenoneine concentration in muscle or blood cells of the control fish (ng/kg wet), and CF is the selenoneine concentration in the contained feed (μg/kg).

[6] = 5 weeks (4 weeks supplementation, then 1 week commercial diet), diet 1 mg Se/kg added
[7] = 5 weeks (4 weeks supplementation, then 1 week commercial diet), diet 2 mg Se/kg added

C[N+](C)(C)[C@@H](Cc1cnc([Se-])[nH]1)C(=O)O [Selenoneine, 2-selenyl-Nα, Nα, Nα-trimethyl-L-histidine]
Total selenium content, blood cell ([1]; 2 weeks, diet 1 mg Se/kg added): 3.98 ± 1.00 mg Se/kg
Total selenium content, blood cell ([1]; 2 weeks, diet 2 mg Se/kg added): 9.28 ± 1.67 mg Se/kg
Total selenium content, blood cell ([1]; 4 weeks, diet 1 mg Se/kg added): 5.93 ± 1.00 mg Se/kg
Total selenium content, blood cell ([1]; 4 weeks, diet 2 mg Se/kg added): 9.94 ± 2.05 mg Se/kg
Total selenium content, blood cell [1, 6]: 4.70 ± 0.53 mg Se/kg
Total selenium content, blood cell [1, 7]: 9.10 ± 1.48 mg Se/kg
Total selenium content, brain ([1]; 2 weeks, diet 1 mg Se/kg added): 0.48 ± 0.02 mg Se/kg
Total selenium content, brain ([1]; 2 weeks, diet 2 mg Se/kg added): 0.50 ± 0.04 mg Se/kg
Total selenium content, brain ([1]; 4 weeks, diet 1 mg Se/kg added): 0.55 ± 0.06 mg Se/kg
Total selenium content, brain ([1]; 4 weeks, diet 2 mg Se/kg added): 0.56 ± 0.05 mg Se/kg
Total selenium content, brain [1, 6]: 0.48 ± 0.09 mg Se/kg
Total selenium content, brain [1, 7]: 0.47 ± 0.04 mg Se/kg
Tissues in which total selenium was accumulated compared with the control group ([1]; diet 1 mg Se/kg): white muscle, kidney, spleen, hepatopancreas, brain, and blood cell
Tissues in which total selenium was accumulated compared with the control group ([1]; diet 2 mg Se/kg): white muscle, heart, kidney, spleen, hepatopancreas, brain, and blood cell
Total selenium content, heart ([1]; 2 weeks, diet 1 mg Se/kg added): 1.11 ± 0.11 mg Se/kg
Total selenium content, heart ([1]; 2 weeks, diet 2 mg Se/kg added): 1.32 ± 0.18 mg Se/kg
Total selenium content, heart ([1]; 4 weeks, diet 1 mg Se/kg added): 1.16 ± 0.11 mg Se/kg
Total selenium content, heart ([1]; 4 weeks, diet 2 mg Se/kg added): 1.19 ± 0.09 mg Se/kg
Total selenium content, heart [1, 6]: 1.09 ± 0.15 mg Se/kg
Total selenium content, heart [1, 7]: 1.28 ± 0.29 mg Se/kg
Total selenium content, hepatopancreas ([1]; 2 weeks, diet 1 mg Se/kg added): 1.27 ± 0.18 mg Se/kg
Total selenium content, hepatopancreas ([1]; 2 weeks, diet 2 mg Se/kg added): 1.51 ± 0.26 mg Se/kg
Total selenium content, hepatopancreas ([1]; 4 weeks, diet 1 mg Se/kg added): 1.22 ± 0.14 mg Se/kg
Total selenium content, hepatopancreas ([1]; 4 weeks, diet 2 mg Se/kg added): 1.35 ± 0.18 mg Se/kg
Total selenium content, hepatopancreas [1, 6]: 1.34 ± 0.26 mg Se/kg
Total selenium content, hepatopancreas [1, 7]: 1.40 ± 0.25 mg Se/kg
Total selenium content, kidney ([1]; 2 weeks, diet 1 mg Se/kg added): 3.22 ± 0.18 mg Se/kg
Total selenium content, kidney ([1]; 2 weeks, diet 2 mg Se/kg added): 3.46 ± 0.43 mg Se/kg
Total selenium content, kidney ([1]; 4 weeks, diet 1 mg Se/kg added): 3.17 ± 0.40 mg Se/kg
Total selenium content, kidney ([1]; 4 weeks, diet 2 mg Se/kg added): 4.03 ± 0.72 mg Se/kg
Total selenium content, kidney [1, 6]: 2.96 ± 0.32 mg Se/kg
Total selenium content, kidney [1, 7]: 3.51 ± 0.49 mg Se/kg
Total selenium content, spleen ([1]; 2 weeks, diet 1 mg Se/kg added): 3.45 ± 0.56 mg Se/kg
Total selenium content, spleen ([1]; 2 weeks, diet 2 mg Se/kg added): 4.69 ± 0.79 mg Se/kg
Total selenium content, spleen ([1]; 4 weeks, diet 1 mg Se/kg added): 3.23 ± 0.37 mg Se/kg
Total selenium content, spleen ([1]; 4 weeks, diet 2 mg Se/kg added): 5.20 ± 1.01 mg Se/kg
Total selenium content, spleen [1, 6]: 3.15 ± 0.83 mg Se/kg
Total selenium content, spleen [1, 7]: 3.16 ± 0.68 mg Se/kg
Total selenium content, white muscle ([1]; 2 weeks, diet 1 mg Se/kg added): 0.39 ± 0.05 mg Se/kg
Total selenium content, white muscle ([1]; 2 weeks, diet 2 mg Se/kg added): 0.35 ± 0.04 mg Se/kg
Total selenium content, white muscle ([1]; 4 weeks, diet 1 mg Se/kg added): 0.40 ± 0.05 mg Se/kg
Total selenium content, white muscle ([1]; 4 weeks, diet 2 mg Se/kg added): 0.43 ± 0.04 mg Se/kg
Total selenium content, white muscle [1, 6]: 0.38 ± 0.04 mg Se/kg
Total selenium content, white muscle [1, 7]: 0.38 ± 0.03 mg Se/kg
ORP in white muscle compared to control [2]: reduced ORP
Selenoneine as share of total selenium in blood cell ([3]; blood cell, 4 weeks): more than 63%
Selenoneine concentration, blood cell ([3]; blood cell, diet 1 mg Se/kg added): 4.72 ± 1.06 mg Se/kg
Selenoneine concentration, blood cell ([3]; blood cell, diet 1 mg Se/kg added, listed as selenoneine): 4.72 ± 1.06 mg Se/kg
Selenoneine concentration, blood cell ([3]; blood cell, diet 2 mg Se/kg added): 10.29 ± 3.14 mg Se/kg
Selenoneine concentration, blood cell ([3]; blood cell, diet 2 mg Se/kg added, listed as selenoneine): 10.29 ± 3.14 mg Se/kg
Selenoneine as share of selenium in white muscle ([3]; white muscle, 4 weeks): 4.6–7.0%
Selenoneine concentration, white muscle ([3]; white muscle, diet 1 mg Se/kg added): 0.025 ± 0.003 mg Se/kg
Selenoneine concentration, white muscle ([3]; white muscle, diet 1 mg Se/kg added, listed as selenoneine): 0.025 ± 0.003 mg Se/kg
Selenoneine concentration, white muscle ([3]; white muscle, diet 2 mg Se/kg added): 0.030 ± 0.007 mg Se/kg
Selenoneine concentration, white muscle ([3]; white muscle, diet 2 mg Se/kg added, listed as selenoneine): 0.030 ± 0.007 mg Se/kg
Selenoneine concentration in white muscle ([3]; white muscle, selenoneine 1 mg Se/kg administration group): 25.4 ± 3.2 µg Se/kg
Selenoneine concentration in white muscle ([3]; white muscle, selenoneine 2 mg Se/kg administration group): 30.0 ± 6.6 µg Se/kg
Ratio of selenium used in selenoneine in white muscle ([3]; white muscle, selenoneine 2 ppm administration group): about 7.0%
ORP after dietary intake [4]: reduced ORP and approached the ORP of wild fish
Uptake factor of selenoneine in the blood ([5]; blood (blood cells)): 4.0
Uptake factor of selenoneine in the white muscle ([5]; white muscle): 0.0062
